Results taken from US20030092760A1, “Therapeutic agent for renal failure” (Toray Industries, Inc., priority 2001, published 2003).

Assays:
[1] = tested on: renal failure rat models of which the primary disease is glomerulonephritis; experiment: Renal failure rat models of which the primary disease is glomerulonephritis, subcutaneous osmotic pump; format: in vivo, WKY rats
Text: Renal failure rat models of which the primary disease was glomerulonephritis were used to examine the effect of different 4,8-inter-m-phenylene prostaglandin I2 derivatives including beraprost sodium on the models. […] Two weeks after the induction, blood was collected from each rat through the tail vein to determine blood creatinine and BUN levels. […] Four types of 4,8-inter-m-phenylene prostaglandin I2 derivatives in total, including beraprost sodium, were individually administered subcutaneously to the rats from the back continuously with an osmotic pump (ALZET) for one week, beginning two weeks after induction of glomerulonephritis and continued through three weeks after the induction. The renal functions (i.e., blood creatinine and BUN levels) were determined one week after the initial administration of a drug.

[2] = tested on: ⅚ nephrectomized rat model; experiment: Effect on ⅚ nephrectomized rat model: renal functions; format: in vivo, Wistar rats
Procedure: The effect of beraprost sodium on a ⅚ nephrectomized rat model, which has been widely used as a model animal for renal failure, was examined. Two-thirds of the left kidney was removed from each of 4-week-old male Wistar rats (Charles River Japan Inc.) with a razor, and all of the right kidney was then removed therefrom one week after. Three weeks after the initial surgery, blood was collected from each rat through the tail vein and serum creatinine and BUN levels were determined from the blood. At this point of time, the urine was also collected for 24 hours to determine the mass of proteins in the urine. The rats were allocated to one of the treatment groups by the stratifying continuous randomization method based on the mass of proteins in the urine and the body weight (n=8 per group). […] Three weeks after the initial surgery, beraprost sodium or captopril (SIGMA, i.e., a positive control) was orally administered to each rat twice a day everyday, beginning the day on which administration of a drug was started and continued through five weeks after the administration. The determination of the renal functions was performed both three weeks and five weeks after the initial administration of a drug. The photographic images of the renal tissue were observed only five weeks after the initial administration.

[3] = tested on: glomerulonephritis model rats in renal failure stage; experiment: Glomerulonephritis model rats, renal failure stage, oral administration; conditions: for Increase in urinal total protein excretion (in words): renal failure stage, two weeks through four weeks after induction
Procedure: (§1) Eight-week-old male WKY rats (Charles River Japan Inc.) were administered intravenously with rabbit anti-rat glomerular basement membrane antiserum to induce glomerulonephritis. […] The frequency of the administration was twice a day for beraprost sodium and captopril and once a day for prednisolone. After the initial administration of a drug, urinary total protein excretion (which is a measure of renal functions) was determined.

[4] = tested on: ⅚ nephrectomized rat model; experiment: ⅚ nephrectomized rat model: observation of renal tissue images (histopathological change); format: in vivo, Wistar rats; conditions: for Framework: Infiltration of mononuclear cells / Renal corpuscle: Cellular filling in glomerulus / Renal corpuscle: Coagulation of glomeruli in Bowman's capsule / Renal corpuscle: Deposition of PAS + materials in Bowman's capsule / Renal corpuscle: Epidermal growth in Bowman's capsule / Renal corpuscle: Glomerular hypertrophy / Renal corpuscle: Glomerulosclerosis / Uriniferous tuble: Basophilic degeneration of tubules / Uriniferous tuble: Proliferation of proximal tubules / Uriniferous tuble: Proteinaceous urinary casts / Uriniferous tuble: Tubular dilation: number of animals with change in 8 animals per group, five weeks after initial administration
Procedure: The effect of beraprost sodium on a ⅚ nephrectomized rat model, which has been widely used as a model animal for renal failure, was examined. Two-thirds of the left kidney was removed from each of 4-week-old male Wistar rats (Charles River Japan Inc.) with a razor, and all of the right kidney was then removed therefrom one week after. Three weeks after the initial surgery, blood was collected from each rat through the tail vein and serum creatinine and BUN levels were determined from the blood. At this point of time, the urine was also collected for 24 hours to determine the mass of proteins in the urine. The rats were allocated to one of the treatment groups by the stratifying continuous randomization method based on the mass of proteins in the urine and the body weight (n=8 per group). There was observed little difference in the initial values of blood creatinine and BUN values among the rats. Three weeks after the initial surgery, beraprost sodium or captopril (SIGMA, i.e., a positive control) was orally administered to each rat twice a day everyday, beginning the day on which administration of a drug was started and continued through five weeks after the administration. The determination of the renal functions was performed both three weeks and five weeks after the initial administration of a drug. The photographic images of the renal tissue were observed only five weeks after the initial administration. […] Five weeks after the initial administration, more exacerbation of chronic renal failure was observed. […] The same tendency was shown five weeks after the initial administration (Table 2).

[5] = tested on: glomerulonephritis model rats in inflammatory stage; experiment: Glomerulonephritis model rats, inflammatory stage, oral administration; conditions: for Urinary total protein excretion: 7 days after induction (1 week after initial administration); for Increase in urinal total protein excretion (in words): day 1 through day 7 after induction
Procedure: as §1

[6] = 60 μg/kg group, 2 weeks after induction (before administration)
[7] = 60 μg/kg s.c. osmotic pump, 3 weeks after induction (1 week after the initial administration)
[8] = 200 μg/kg group, 2 weeks after induction (before administration)
[9] = 200 μg/kg s.c. osmotic pump, 3 weeks after induction (1 week after the initial administration)
[10] = 100 μg/kg oral twice a day, five weeks after the administration of a drug
[11] = 100 μg/kg oral twice a day, three weeks after the administration of a drug
[12] = 300 μg/kg oral twice a day, five weeks after the administration of a drug
[13] = 300 μg/kg oral twice a day, three weeks after the administration of a drug
[14] = 50 mg/kg oral twice a day, five weeks after the administration of a drug
[15] = 50 mg/kg oral twice a day, three weeks after the administration of a drug
[16] = Table 5, 60 μg/kg group, 2 weeks after induction (before administration)
[17] = Table 5, 60 μg/kg s.c. osmotic pump, 3 weeks after induction (1 week after the initial administration)

CC#CCC(C)[C@H](O)/C=C/C1[C@H](O)C[C@@H]2Oc3c(CCCC(=O)[O-])cccc3[C@H]12.[Na+] (mixture of isomers) [Beraprost sodium, beraprost sodium]
BUN [1, 6]: 28 ± 3 mg/dL | Blood creatinine [1, 6]: 0.61 ± 0.07 mg/dL | BUN [1, 7]: 31 ± 2 mg/dL | Blood creatinine [1, 7]: 0.48 ± 0.04 mg/dL | BUN [1, 8]: 30 ± 3 mg/dL | Blood creatinine [1, 8]: 0.62 ± 0.06 mg/dL | BUN [1, 9]: 25 ± 1 mg/dL | Blood creatinine [1, 9]: 0.49 ± 0.04 mg/dL | Blood creatinine and BUN levels compared with the control group (in words) ([1]; three weeks after the induction of glomerulonephritis): significantly decreased | Blood urea nitrogen [2, 10]: 45.5 ± 3.3 mg/dL | Creatinine clearance [2, 10]: 156.9 ± 19.5 μl/min/100 gBW | Urinary protein excretion [2, 10]: 276.5 ± 69.2 mg/24 hr/kgBW | Urinary volume [2, 10]: 21.7 ± 3.1 ml/24 hr | Blood urea nitrogen [2, 11]: 55.9 ± 3.7 mg/dL | Creatinine clearance [2, 11]: 134.1 ± 11.0 μl/min/100 gBW | Urinary protein excretion [2, 11]: 125.3 ± 20.8 mg/24 hr/kgBW | Urinary volume [2, 11]: 20.1 ± 2.8 ml/24 hr | Blood urea nitrogen [2, 12]: 45.1 ± 3.5 mg/dL | Creatinine clearance [2, 12]: 143.5 ± 10.0 μl/min/100 gBW | Urinary protein excretion [2, 12]: 197.1 ± 21.1 mg/24 hr/kgBW | Urinary volume [2, 12]: 20.4 ± 1.7 ml/24 hr | Blood urea nitrogen [2, 13]: 50.9 ± 3.6 mg/dL | Creatinine clearance [2, 13]: 136.4 ± 9.9 μl/min/100 gBW | Urinary protein excretion [2, 13]: 154.4 ± 53.0 mg/24 hr/kgBW | Urinary volume [2, 13]: 20.4 ± 3.7 ml/24 hr | Effect on urinary protein level, creatinine clearance and BUN level (in words) ([2]; three weeks after the initial administration, same tendency five weeks after): significant prevention of increase in the urinary protein level and prevention of reduction in the creatinine clearance and increase in the BUN level | Urinary total protein excretion ([3]; 300 μg/kg group, renal failure stage Exp. 1, 2 weeks after induction (before administration)): 374 ± 21 mg/24 hr | Urinary total protein excretion ([3]; 300 μg/kg group, renal failure stage Exp. 2, 2 weeks after induction (before administration)): 321 ± 23 mg/24 hr | Urinary total protein excretion ([3]; 300 μg/kg oral twice a day, renal failure stage Exp. 1, 3 weeks after induction (1 week after initial administration)): 300 ± 51 mg/24 hr | Urinary total protein excretion ([3]; 300 μg/kg oral twice a day, renal failure stage Exp. 2, 4 weeks after induction (2 week after initial administration)): 295 ± 46 mg/24 hr | Increase in urinal total protein excretion (in words) [3]: markedly prevented | Framework: Infiltration of mononuclear cells ([4]; 100 μg/kg): 7 | Renal corpuscle: Cellular filling in glomerulus ([4]; 100 μg/kg): 7 | Renal corpuscle: Coagulation of glomeruli in Bowman's capsule ([4]; 100 μg/kg): 2 | Renal corpuscle: Deposition of PAS + materials in Bowman's capsule ([4]; 100 μg/kg): 2 | Renal corpuscle: Epidermal growth in Bowman's capsule ([4]; 100 μg/kg): 1 | Renal corpuscle: Glomerular hypertrophy ([4]; 100 μg/kg): 3 | Renal corpuscle: Glomerulosclerosis ([4]; 100 μg/kg): 2 | Uriniferous tuble: Basophilic degeneration of tubules ([4]; 100 μg/kg): 8 | Uriniferous tuble: Proliferation of proximal tubules ([4]; 100 μg/kg): 8 | Uriniferous tuble: Proteinaceous urinary casts ([4]; 100 μg/kg): 5 | Uriniferous tuble: Tubular dilation ([4]; 100 μg/kg): 8 | Framework: Infiltration of mononuclear cells ([4]; 300 μg/kg): 7 | Renal corpuscle: Cellular filling in glomerulus ([4]; 300 μg/kg): 4 | Renal corpuscle: Coagulation of glomeruli in Bowman's capsule ([4]; 300 μg/kg): 1 | Renal corpuscle: Deposition of PAS + materials in Bowman's capsule ([4]; 300 μg/kg): 1 | Renal corpuscle: Epidermal growth in Bowman's capsule ([4]; 300 μg/kg): 1 | Renal corpuscle: Glomerular hypertrophy ([4]; 300 μg/kg): 2 | Renal corpuscle: Glomerulosclerosis ([4]; 300 μg/kg): 1 | Uriniferous tuble: Basophilic degeneration of tubules ([4]; 300 μg/kg): 8 | Uriniferous tuble: Proliferation of proximal tubules ([4]; 300 μg/kg): 8 | Uriniferous tuble: Proteinaceous urinary casts ([4]; 300 μg/kg): 2 | Uriniferous tuble: Tubular dilation ([4]; 300 μg/kg): 8 | Progress of the glomerular conditions (renal tissue images, in words) ([4]; five weeks after the initial administration): markedly prevented | Urinary total protein excretion ([5]; 300 μg/kg oral twice a day): 17 ± 7 mg/24 hr | Increase in urinal total protein excretion (in words) [5]: markedly prevented

C[C@H](CS)C(=O)N1CCC[C@H]1C(=O)O [Captopril, captopril, reference compound]
Blood urea nitrogen [2, 14]: 47.8 ± 5.2 mg/dL | Urinary protein excretion [2, 14]: 255.5 ± 76.6 mg/24 hr/kgBW | Blood urea nitrogen [2, 15]: 51.4 ± 3.7 mg/dL | Urinary protein excretion [2, 15]: 136.8 ± 29.9 mg/24 hr/kgBW | Urinary total protein excretion ([3]; 50 mg/kg group, renal failure stage Exp. 2, 2 weeks after induction (before administration)): 318 ± 22 mg/24 hr | Urinary total protein excretion ([3]; 50 mg/kg oral twice a day, renal failure stage Exp. 2, 4 weeks after induction (2 week after initial administration)): 504 ± 51 mg/24 hr | Urinary total protein excretion ([3]; 100 mg/kg group, renal failure stage Exp. 2, 2 weeks after induction (before administration)): 325 ± 6 mg/24 hr | Urinary total protein excretion ([3]; 100 mg/kg oral twice a day, renal failure stage Exp. 2, 4 weeks after induction (2 week after initial administration)): 517 ± 33 mg/24 hr | Increase in urinal total protein excretion (in words) [3]: no effective prevention | Framework: Infiltration of mononuclear cells ([4]; 50 μg/kg): 7 | Renal corpuscle: Cellular filling in glomerulus ([4]; 50 μg/kg): 4 | Renal corpuscle: Coagulation of glomeruli in Bowman's capsule ([4]; 50 μg/kg): 2 | Renal corpuscle: Deposition of PAS + materials in Bowman's capsule ([4]; 50 μg/kg): 1 | Renal corpuscle: Epidermal growth in Bowman's capsule ([4]; 50 μg/kg): 2 | Renal corpuscle: Glomerular hypertrophy ([4]; 50 μg/kg): 1 | Renal corpuscle: Glomerulosclerosis ([4]; 50 μg/kg): 2 | Uriniferous tuble: Basophilic degeneration of tubules ([4]; 50 μg/kg): 6 | Uriniferous tuble: Proliferation of proximal tubules ([4]; 50 μg/kg): 8 | Uriniferous tuble: Proteinaceous urinary casts ([4]; 50 μg/kg): 4 | Uriniferous tuble: Tubular dilation ([4]; 50 μg/kg): 8 | Urinary total protein excretion ([5]; 50 mg/kg oral twice a day): 75 ± 14 mg/24 hr | Increase in urinal total protein excretion (in words) [5]: effective prevention

O=C([O-])CCCc1cccc2c1OC1CC(O)C(C#CC(O)C3CCCCC3)C21.[Na+] (centres unmarked) [Compound 1]
BUN [1, 16]: 29 ± 2 mg/dL | Blood creatinine [1, 16]: 0.44 ± 0.05 mg/dL | BUN [1, 17]: 27 ± 2 mg/dL | Blood creatinine [1, 17]: 0.41 ± 0.02 mg/dL

O=C([O-])/C=C/Cc1cccc2c1OC1CC(O)C(/C=C/C(O)c3ccccc3)C21.[Na+] (centres unmarked) [Compound 2]
BUN [1, 16]: 28 ± 2 mg/dL | Blood creatinine [1, 16]: 0.45 ± 0.04 mg/dL | BUN [1, 17]: 31 ± 3 mg/dL | Blood creatinine [1, 17]: 0.44 ± 0.05 mg/dL

O=C([O-])CCCc1cccc2c1OC1CC(O)C(/C=C/C(O)c3ccccc3)C21.[Na+] (centres unmarked) [Compound 3]
BUN [1, 16]: 28 ± 3 mg/dL | Blood creatinine [1, 16]: 0.45 ± 0.05 mg/dL | BUN [1, 17]: 30 ± 3 mg/dL | Blood creatinine [1, 17]: 0.39 ± 0.04 mg/dL

C[C@]12C=CC(=O)C=C1CC[C@@H]1[C@@H]2[C@@H](O)C[C@@]2(C)[C@H]1CC[C@]2(O)C(=O)CO [Prednisolone, prednisolone]
Urinary total protein excretion ([3]; 2 mg/kg group, renal failure stage Exp. 1, 2 weeks after induction (before administration)): 368 ± 20 mg/24 hr | Urinary total protein excretion ([3]; 2 mg/kg oral once a day, renal failure stage Exp. 1, 3 weeks after induction (1 week after initial administration)): 456 ± 78 mg/24 hr | Increase in urinal total protein excretion (in words) [3]: no effective prevention | Urinary total protein excretion ([5]; 2 mg/kg oral once a day): 38 ± 8 mg/24 hr | Increase in urinal total protein excretion (in words) [5]: effective prevention
